Experimental data taken from patent publication US10144732B2 (BIOGEN MA INC., priority 2014, dated 2018).
Counter-ions that a name gives are not always drawn. Like-named read-outs stand apart in the source and are kept apart here.

Target: T1, Human ATX protein (Homo sapiens, UniProt Q13822)
T1 construct: made in house
Test: ATX biochemical assay (FRET, FS-3 substrate)
Conditions: FS-3 2 μM, ATX 1.0 μg/mL, 30 minutes preincubation, 2 hours reaction at room temperature
How it was run: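 In-house human ATX (1.0 μg/mL final) was preincubated with compound for 30 min at room temperature in Tris buffer pH 7.4 with 1 mg/mL fatty acid free-BSA. FS-3 substrate (2 μM final) was then hydrolysed for 2 hours at room temperature, protected from light, and read as fluorescence at ex 485/em 538 nm.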

Compound | IC50 (FRET assay, read-out: IC50) | IC50 (IC50, FRET assay)
O=C(C[C@H]1CC[C@H](C(=O)O)CC1)N1CCc2c(C(F)(F)F)nn(Cc3ccc(F)c(F)c3)c2C1 [Example 5-31, trans-4-(2-(1-(3,4-Difluorobenzyl)-3-(trifluoromethyl)-4,5-dihydro-1H-pyrazolo[3,4-c]pyridin-6(7H)-yl)-2-oxoethyl)cyclohexanecarboxylic acid] | ≤ 100 nM | –
O=C(C[C@H]1CC[C@H](C(=O)O)CC1)N1CCc2c(C(F)(F)F)nn(Cc3cncs3)c2C1 [Example 5-28, trans-4-(2-Oxo-2-(1-(thiazol-5-ylmethyl)-3-(trifluoromethyl)-4,5-dihydro-1H-pyrazolo[3,4-c]pyridin-6(7H)-yl)ethyl)cyclohexanecarboxylic acid] | ≤ 100 nM | –
NC12CCC(CC(=O)N3CCc4c(C(F)(F)F)nn(Cc5ccc(F)cc5)c4C3)(CC1)CC2 [Example 9-10, 2-(4-Aminobicyclo[2.2.2]octan-1-yl)-1-(1-(4-fluorobenzyl)-3-(trifluoromethyl)-4,5-dihydro-1H-pyrazolo[3,4-c]pyridin-6(7H)-yl)ethanone TFA salt] | 100 to 250 nM | –
N#CC1CN(CC(=O)N2CCc3c(C(F)(F)F)nn(Cc4ccc(F)cc4)c3C2)C1 [Example 12-12, 1-(2-(1-(4-Fluorobenzyl)-3-(trifluoromethyl)-4,5-dihydro-1H-pyrazolo[3,4-c]pyridin-6(7H)-yl)-2-oxoethyl)azetidine-3-carbonitrile TFA salt] | ≤ 100 nM | –
O=C(O)C1CC2CCC(C1)N2CC(=O)N1CCc2c(C(F)(F)F)nn(Cc3ccc(F)cc3)c2C1 (stereo not drawn) [Example 13-5, 8-(2-(1-(4-Fluorobenzyl)-3-(trifluoromethyl)-4,5-dihydro-1H-pyrazolo[3,4-c]pyridin-6(7H)-yl)-2-oxoethyl)-8-azabicyclo[3.2.1]octane-3-carboxylic acid] | – | ≤ 100 nM
CN1C2CCC1CC(CC(=O)N1CCc3c(C(F)(F)F)nn(Cc4ccc(Cl)cc4F)c3C1)C2 (stereo not drawn) [Example 10-1, 1-(1-(4-Chloro-2-fluorobenzyl)-3-(trifluoromethyl)-4,5-dihydro-1H-pyrazolo[3,4-c]pyridin-6(7H)-yl)-2-(8-methyl-8-aza-bicyclo[3.2.1]octan-3-yl)ethanone TFA salt] | – | ≤ 100 nM
CCOC(=O)C1CCC(CC(=O)N2CCc3c(C(F)(F)F)nn(Cc4ccccc4F)c3C2)CC1 (stereo not drawn) [Example 1-19, Ethyl 4-(2-(1-(2-fluorobenzyl)-3-(trifluoromethyl)-4,5-dihydro-1H-pyrazolo[3,4-c]pyridin-6(7H)-yl)-2-oxoethyl)cyclohexanecarboxylate] | ≤ 100 nM | –
O=C(CC12CCC(C(=O)O)(CC1)C2)N1CCc2c(C(F)(F)F)nn(Cc3ccc(F)cc3)c2C1 [Example 5-53, 4-(2-(1-(4-Fluorobenzyl)-3-(trifluoromethyl)-4,5-dihydro-1H-pyrazolo[3,4-c]pyridin-6(7H)-yl)-2-oxoethyl)bicyclo[2.2.1]heptane-1-carboxylic acid] | ≤ 100 nM | –
O=C(CC1CCC(N2CCCC2)CC1)N1CCc2c(C(F)(F)F)nn(Cc3ccc(F)cc3)c2C1 (stereo not drawn) [Example 22-9, 1-(1-(4-Fluorobenzyl)-3-(trifluoromethyl)-4,5-dihydro-1H-pyrazolo[3,4-c]pyridin-6(7H)-yl)-2-(4-(pyrrolidin-1-yl)cyclohexyl)ethanone TFA salt] | ≤ 100 nM | –
CC(c1ccc(F)cc1)n1nc(C(F)(F)F)c2c1CN(C(=O)C[C@H]1CC[C@@H](C(=O)O)CC1)CC2 (stereo partly drawn) [Example 5-20, cis-4-(2-(1-(1-(4-Fluorophenyl)ethyl)-3-(trifluoromethyl)-4,5-dihydro-1H-pyrazolo[3,4-c]pyridin-6(7H)-yl)-2-oxoethyl)cyclohexanecarboxylic acid] | ≤ 100 nM | –
O=C(O)C1CC2(CC(CC(=O)N3CCc4c(C(F)(F)F)nn(Cc5ccc(Cl)cc5F)c4C3)C2)C1 (stereo not drawn) [Example 6-12, 6-(2-(1-(4-Chloro-2-fluorobenzyl)-3-(trifluoromethyl)-4,5-dihydro-1H-pyrazolo[3,4-c]pyridin-6(7H)-yl)-2-oxoethyl)spiro[3.3]heptane-2-carboxylic acid] | ≤ 100 nM | –
CN1CC(CC(=O)N2CCc3c(C(F)(F)F)nn(Cc4ccc(Cl)cc4F)c3C2)C[C@@H]1C(=O)O (stereo partly drawn) [Example 10-10, (2R)-4-(2-(1-(4-chloro-2-fluorobenzyl)-3-(trifluoromethyl)-4,5-dihydro-1H-pyrazolo[3,4-c]pyridin-6(7H)-yl)-2-oxoethyl)-1-methylpyrrolidine-2-carboxylic acid TFA salt] | ≤ 100 nM | –
O=C(O)CC1CCN(CC(=O)N2CCc3c(C(F)(F)F)nn(Cc4ccc(Cl)cc4F)c3C2)C1 (stereo not drawn) [Example 13-24, 2-(1-(2-(1-(4-Chloro-2-fluorobenzyl)-3-(trifluoromethyl)-4,5-dihydro-1H-pyrazolo[3,4-c]pyridin-6(7H)-yl)-2-oxoethyl)pyrrolidin-3-yl)acetic acid TFA salt] | ≤ 100 nM | –
O=C(C[C@H]1CC[C@H](C(=O)O)CC1)N1CCc2c(CO)nn(Cc3ccc(F)cc3)c2C1 [Example 5-45, trans-4-(2-(1-(4-Fluorobenzyl)-3-(hydroxymethyl)-4,5-dihydro-1H-pyrazolo[3,4-c]pyridin-6(7H)-yl)-2-oxoethyl)cyclohexanecarboxylic acid] | ≤ 100 nM | –
O=C(C[C@H]1CC[C@H](C(=O)O)CC1)N1CCc2c(C(F)(F)F)nn(Cc3ccc(F)cc3)c2C1 [Example 7-1, trans-4-(2-(1-(4-Fluorobenzyl)-3-(trifluoromethyl)-4,5-dihydro-1H-pyrazolo[3,4-c]pyridin-6(7H)-yl)-2-oxoethyl)cyclohexanecarboxylic acid] | ≤ 100 nM | –
CC1(C)C(NCC(=O)N2CCc3c(C(F)(F)F)nn(Cc4ccc(F)cc4)c3C2)CC1C(=O)O (stereo not drawn) [Example 13-14, 3-((2-(1-(4-Fluorobenzyl)-3-(trifluoromethyl)-4,5-dihydro-1H-pyrazolo[3,4-c]pyridin-6(7H)-yl)-2-oxoethyl)amino)-2,2-dimethylcyclobutanecarboxylic acid TFA salt] | ≤ 100 nM | –
O=C(CC1CCC(O)CC1)N1CCc2c(C(F)(F)F)nn(Cc3ccc(Cl)cc3F)c2C1 (stereo not drawn) [Example 1-15, 1-(1-(4-Chloro-2-fluorobenzyl)-3-(trifluoromethyl)-4,5-dihydro-1H-pyrazolo[3,4-c]pyridin-6(7H)-yl)-2-(4-hydroxycyclohexyl)ethanone] | ≤ 100 nM | –
O=C(O)CN1CCC(C(=O)N2CCc3c(C(F)(F)F)nn(Cc4ccc(Cl)cc4F)c3C2)C1 (stereo not drawn) [Example 15-5, 2-(3-(1-(4-Chloro-2-fluorobenzyl)-3-(trifluoromethyl)-4,5,6,7-tetrahydro-1H-pyrazolo[3,4-c]pyridine-6-carbonyl)pyrrolidin-1-yl)acetic acid TFA salt] | ≤ 100 nM | –
O=C(O)C1CN(CC(=O)N2CCc3c(C(F)(F)F)nn(Cc4ccc(F)cc4)c3C2)C1 [Example 13-18, 1-(2-(1-(4-Fluorobenzyl)-3-(trifluoromethyl)-4,5-dihydro-1H-pyrazolo[3,4-c]pyridin-6(7H)-yl)-2-oxoethyl)azetidine-3-carboxylic acid TFA salt] | ≤ 100 nM | –
O=C(C[C@H]1CC[C@@H](C(=O)O)CC1)N1CCc2c(C(F)(F)F)nn(Cc3ccc(Cl)cc3F)c2C1 [Example 5-2, cis-4-(2-(1-(4-Chloro-2-fluorobenzyl)-3-(trifluoromethyl)-4,5-dihydro-1H-pyrazolo[3,4-c]pyridin-6(7H)-yl)-2-oxoethyl)cyclohexanecarboxylic acid] | ≤ 100 nM | –
CCOC(=O)C1CCC(CC(=O)N2CCc3c(C(F)(F)F)nn(Cc4ccc(Cl)cc4Cl)c3C2)CC1 (stereo not drawn) [Example 1-9, Ethyl 4-(2-(1-(2,4-dichlorobenzyl)-3-(trifluoromethyl)-4,5-dihydro-1H-pyrazolo[3,4-c]pyridin-6(7H)-yl)-2-oxoethyl)cyclohexanecarboxylate] | ≤ 100 nM | –
COC(=O)[C@H]1CC[C@H](NC(=O)N2CCc3c(C(F)(F)F)nn(Cc4ccc(Cl)cc4F)c3C2)CC1 [Example 3-2, trans-Methyl 4-(1-(4-chloro-2-fluorobenzyl)-3-(trifluoromethyl)-4,5,6,7-tetrahydro-1H-pyrazolo[3,4-c]pyridine-6-carboxamido)cyclohexanecarboxylate] | 100 to 250 nM | –
O=C(O)C1CC2(CC(CC(=O)N3CCc4c(C(F)(F)F)nn(Cc5ccc(F)cc5)c4C3)C2)C1 (stereo not drawn) [Example 6-13, 6-(2-(1-(4-Fluorobenzyl)-3-(trifluoromethyl)-4,5-dihydro-1H-pyrazolo[3,4-c]pyridin-6(7H)-yl)-2-oxoethyl)spiro[3.3]heptane-2-carboxylic acid] | ≤ 100 nM | –
CCOC(=O)[C@H]1CC[C@H](CC(=O)N2CCc3c(C(F)(F)F)nn(Cc4ccc(Cl)cc4F)c3C2)CC1 [Example 2-1, trans-Ethyl 4-(2-(1-(4-chloro-2-fluorobenzyl)-3-(trifluoromethyl)-4,5-dihydro-1H-pyrazolo[3,4-c]pyridin-6(7H)-yl)-2-oxoethyl)cyclohexanecarboxylate] | ≤ 100 nM | –
O=C(C[C@H]1CC[C@H](C(=O)O)CC1)N1CCc2c(-c3ccccc3)nn(Cc3ccc(F)cc3)c2C1 [Example 5-39, trans-4-(2-(1-(4-Fluorobenzyl)-3-phenyl-4,5-dihydro-1H-pyrazolo[3,4-c]pyridin-6(7H)-yl)-2-oxoethyl)cyclohexanecarboxylic acid] | ≤ 100 nM | –
O=C(CN[C@H]1C[C@@H](C(=O)O)C1)N1CCc2c(C(F)(F)F)nn(Cc3ccc(F)cc3)c2C1 [Example 13-28, cis-3-(2-(1-(4-Fluorobenzyl)-3-(trifluoromethyl)-4,5-dihydro-1H-pyrazolo[3,4-c]pyridin-6(7H)-yl)-2-oxoethylamino)cyclobutanecarboxylic acid TFA salt] | ≤ 100 nM | –
O=C(O)C1CC2CCC(C1)C2CC(=O)N1CCc2c(C(F)(F)F)nn(Cc3ccc(Cl)cc3F)c2C1 (mixture of isomers) [Example 6-10, 8-(2-(1-(4-Chloro-2-fluorobenzyl)-3-(trifluoromethyl)-4,5-dihydro-1H-pyrazolo[3,4-c]pyridin-6(7H)-yl)-2-oxoethyl)bicyclo[3.2.1]octane-3-carboxylic acid] | ≤ 100 nM | –
